Test results reported in ChEMBL document CHEMBL2375215, “Phenylpropiophenone derivatives as potential anticancer agents: synthesis, biological evaluation and quantitative structure-activity relationship study” (Eur J Med Chem, 2013).

Tests used:
Aorta = assay: Cytotoxicity against rat aorta at < 10 uM in presence of potassium channel and calcium channel blocker; format: tissue-based
PBMC [1] = assay: Cytotoxicity against human PBMC assessed as decrease in cell survival after 72 hrs by MTT assay; format: cell-based
PBMC [2] = assay: Cytotoxicity against PHA-stimulated human PBMC assessed as decrease in cell survival after 72 hrs by MTT assay; format: cell-based
[3] = Selectivity index, ratio of IC50 for PHA-stimulated human PBMC to IC50 for human LS174 cells
PC-3 [4] = assay: Selectivity index, ratio of IC50 for human PBMC to IC50 for human PC3 cells
PC-3 [5] = assay: Selectivity index, ratio of IC50 for PHA-stimulated human PBMC to IC50 for human PC3 cells
MCF7 [6] = assay: Selectivity index, ratio of IC50 for PHA-stimulated human PBMC to IC50 for human MCF7 cells
HeLa [7] = assay: Cytotoxicity against human HeLa cells assessed as decrease in cell survival after 72 hrs by MTT assay; format: functional, cell-based
[8] = Selectivity index, ratio of IC50 for PHA-stimulated human PBMC to IC50 for human Fem-X cells; format: functional
HeLa [9] = assay: Selectivity index, ratio of IC50 for PHA-stimulated human PBMC to IC50 for human HeLa cells
HeLa [10] = assay: Selectivity index, ratio of IC50 for human PBMC to IC50 for human HeLa cells
K562 [11] = assay: Cytotoxicity against human K562 cells assessed as decrease in cell survival after 72 hrs by MTT assay; format: functional, cell-based; settings: for IC50: K562, 72 h
MCF7 [12] = assay: Selectivity index, ratio of IC50 for human PBMC to IC50 for human MCF7 cells
[13] = Selectivity index, ratio of IC50 for human PBMC to IC50 for human LS174 cells
MCF7 [14] = assay: Cytotoxicity against human MCF7 cells assessed as decrease in cell survival after 72 hrs by MTT assay; format: functional, cell-based; settings: for IC50: MCF7, 72 h
PC-3 [15] = assay: Cytotoxicity against human PC3 cells assessed as decrease in cell survival after 72 hrs by MTT assay; format: functional, cell-based; settings: for IC50: PC-3, 72 h
LS174 = assay: (§1) Cytotoxicity against human LS174 cells assessed as decrease in cell survival after 72 hrs by MTT assay; format: functional, cell-based
[16] = as §1; format: functional, cell-based; settings: LS174, 72 h
[17] = Selectivity index, ratio of IC50 for human PBMC to IC50 for human Fem-X cells
K562 [18] = assay: Selectivity index, ratio of IC50 for human PBMC to IC50 for human K562 cells
K562 [19] = assay: Selectivity index, ratio of IC50 for PHA-stimulated human PBMC to IC50 for human K562 cells
Fem-X = assay: (§2) Cytotoxicity against human Fem-X cells assessed as decrease in cell survival after 72 hrs by MTT assay; format: functional, cell-based
[20] = as §2; format: functional, cell-based

Q: With `CCCNCC(O)COc1ccccc1C(=O)CCc1ccccc1Cl.Cl` (racemic) as the compound, how does the Activity (Aorta) read?
A: Not Active

Q: And the IC50 (PBMC [1])?
A: 59.5 µM

Q: What about the IC50 (PBMC [2]) of the same compound?
A: 52.9 µM

Q: What about the “Ratio IC50” value [3] of the same compound?
A: 4.72

Q: What about the “Ratio IC50” value (PC-3 [4]) of the same compound?
A: 4.72

Q: What about the “Ratio IC50” value (PC-3 [5]) of the same compound?
A: 4.2

Q: What about the “Ratio IC50” value (MCF7 [6]) of the same compound?
A: 2.62

Q: What about the Activity (HeLa [7]) of the same compound?
A: Dose-dependent effect

Q: And the IC50 (HeLa [7]; read-out: IC50)?
A: 3 µM

Q: And the IC50 (HeLa [7]; read-out: pIC50 (converted))?
A: 3 µM

Q: What about the “Ratio IC50” value [8] of the same compound?
A: 10.8

Q: What about the “Ratio IC50” value (HeLa [9]) of the same compound?
A: 17.63

Q: And the “Ratio IC50” value (HeLa [10])?
A: 19.83

Q: What about the Activity (K562 [11]) of the same compound?
A: Dose-dependent effect

Q: And the IC50 (K562 [11]; read-out: IC50)?
A: 6 µM

Q: What about the IC50 (K562 [11]; read-out: pIC50 (converted)) of the same compound?
A: 6 µM

Q: What about the “Ratio IC50” value (MCF7 [12]) of the same compound?
A: 2.95

Q: And the “Ratio IC50” value [13]?
A: 5.31

Q: What about the Activity (MCF7 [14]) of the same compound?
A: Dose-dependent effect

Q: And the IC50 (MCF7 [14]; read-out: IC50)?
A: 20.2 µM

Q: And the IC50 (MCF7 [14]; read-out: pIC50 (converted))?
A: 20.2 µM

Q: And the Activity (PC-3 [15])?
A: Dose-dependent effect

Q: What about the IC50 (PC-3 [15]; read-out: IC50) of the same compound?
A: 12.6 µM

Q: What about the IC50 (PC-3 [15]; read-out: pIC50 (converted)) of the same compound?
A: 12.6 µM

Q: What about the Activity (LS174) of the same compound?
A: Dose-dependent effect

Q: And the IC50 ([16]; read-out: IC50)?
A: 11.2 µM

Q: What about the IC50 ([16]; read-out: pIC50 (converted)) of the same compound?
A: 11.2 µM

Q: And the “Ratio IC50” value [17]?
A: 12.14

Q: And the “Ratio IC50” value (K562 [18])?
A: 9.91

Q: And the “Ratio IC50” value (K562 [19])?
A: 8.82

Q: What about the Activity (Fem-X) of the same compound?
A: Dose-dependent effect

Q: And the IC50 ([20]; read-out: IC50)?
A: 4.9 µM

Q: What about the IC50 ([20]; read-out: pIC50 (converted)) of the same compound?
A: 4.9 µM
